Experimental data taken from patent publication US20130197032A1, “[…] COMPOUNDS FOR THE TREATMENT OF NEUROLOGICAL AND […] DISORDERS” (A. CARLSSON RESEARCH AB, priority 2010, published 2013).

What was measured:
human 5-HT7 receptor = target: T1, human 5-HT7 receptor (Homo sapiens, UniProt P34969); assay: R-SAT assay 5-HT7; type: cell-based; conditions: Table 3, 5-HT7; percent response of reference 5-CT
T1 construct: expressed in transfected cells; host or cells: NIH/3T3

[1] = target: T2, human 5-HT2C(vgv) receptor (Homo sapiens, UniProt P28335, I156V/I160V/N158G); assay: R-SAT assay 5-HT2C; type: cell-based; conditions: Table 3, 5-HT2C; percent response of reference 5-CT
T2 construct: expressed in transfected cells; host or cells: NIH/3T3
T2 sequence (P28335 33-458 I156V/N158G/I160V): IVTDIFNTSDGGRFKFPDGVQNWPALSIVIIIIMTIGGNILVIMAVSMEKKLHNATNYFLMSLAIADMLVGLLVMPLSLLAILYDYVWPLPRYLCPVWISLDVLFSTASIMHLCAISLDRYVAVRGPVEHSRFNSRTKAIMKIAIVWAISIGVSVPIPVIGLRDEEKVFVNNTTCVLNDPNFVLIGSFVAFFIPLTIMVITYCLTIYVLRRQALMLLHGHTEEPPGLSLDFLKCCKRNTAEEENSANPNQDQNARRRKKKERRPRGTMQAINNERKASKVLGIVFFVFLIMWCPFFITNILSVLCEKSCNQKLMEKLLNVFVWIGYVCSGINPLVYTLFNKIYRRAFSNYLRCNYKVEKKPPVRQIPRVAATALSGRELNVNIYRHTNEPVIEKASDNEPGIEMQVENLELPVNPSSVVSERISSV

human 5-HT1D receptor = target: T3, human 5-HT1D receptor (Homo sapiens, UniProt P28221); assay: R-SAT assay 5-HT1D; type: cell-based; conditions: Table 3, 5-HT1D; percent response of reference 5-CT
T3 construct: expressed in transfected cells; host or cells: NIH/3T3
T3 sequence (P28221 whole entry): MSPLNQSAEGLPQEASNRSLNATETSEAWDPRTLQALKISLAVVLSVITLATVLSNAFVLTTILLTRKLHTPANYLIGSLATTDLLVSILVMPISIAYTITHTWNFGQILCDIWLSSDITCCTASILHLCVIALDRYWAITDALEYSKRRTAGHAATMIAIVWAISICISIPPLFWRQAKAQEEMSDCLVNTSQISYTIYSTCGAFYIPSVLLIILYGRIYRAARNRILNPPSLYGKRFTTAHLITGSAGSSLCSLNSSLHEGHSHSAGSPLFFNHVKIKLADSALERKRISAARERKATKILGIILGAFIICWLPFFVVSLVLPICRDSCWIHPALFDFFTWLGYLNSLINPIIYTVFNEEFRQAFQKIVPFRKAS

5-HT2B receptors = 5-HT2B receptors (Homo sapiens, UniProt P41595); assay: R-SAT assay 5-HT2B; type: cell-based; parameters: expressed in transfected cells; host or cells: NIH/3T3
5-HT2B receptors, sequence (P41595 whole entry): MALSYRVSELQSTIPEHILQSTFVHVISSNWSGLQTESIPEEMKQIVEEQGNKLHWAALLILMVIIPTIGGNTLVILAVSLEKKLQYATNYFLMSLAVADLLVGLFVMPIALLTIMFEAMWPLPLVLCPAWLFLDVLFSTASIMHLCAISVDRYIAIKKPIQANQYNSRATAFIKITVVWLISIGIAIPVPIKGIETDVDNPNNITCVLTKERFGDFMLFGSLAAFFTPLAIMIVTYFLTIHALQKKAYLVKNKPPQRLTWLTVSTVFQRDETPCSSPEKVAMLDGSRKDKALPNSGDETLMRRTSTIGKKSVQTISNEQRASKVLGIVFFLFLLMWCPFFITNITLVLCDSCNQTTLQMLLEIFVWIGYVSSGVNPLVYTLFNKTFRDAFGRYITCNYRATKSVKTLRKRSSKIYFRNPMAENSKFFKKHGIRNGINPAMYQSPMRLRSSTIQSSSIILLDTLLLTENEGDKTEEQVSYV

human 5-HT2A receptors [2] = target: T4, human 5-HT2A receptors (Homo sapiens, UniProt P28223); assay: Phosphatidyl inositol (PI) hydrolysis assay at 5-HT2A; type: cell-based; parameters: expressed in transfected cells; conditions: mean ± SEM
T4 sequence (P28223 whole entry): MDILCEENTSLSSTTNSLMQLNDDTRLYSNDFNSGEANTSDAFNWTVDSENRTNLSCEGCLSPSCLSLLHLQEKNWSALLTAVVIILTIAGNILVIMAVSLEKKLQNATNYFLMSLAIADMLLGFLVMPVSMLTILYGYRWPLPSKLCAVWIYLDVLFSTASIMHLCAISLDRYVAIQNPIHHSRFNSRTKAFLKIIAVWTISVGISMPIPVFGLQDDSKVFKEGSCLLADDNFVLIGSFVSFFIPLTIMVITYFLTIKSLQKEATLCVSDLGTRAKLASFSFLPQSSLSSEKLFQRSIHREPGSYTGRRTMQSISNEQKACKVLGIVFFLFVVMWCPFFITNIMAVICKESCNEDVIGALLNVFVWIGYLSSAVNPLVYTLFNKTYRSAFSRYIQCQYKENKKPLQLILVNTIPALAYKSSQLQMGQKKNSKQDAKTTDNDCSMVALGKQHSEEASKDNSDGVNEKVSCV
Method: After lysing the cells with 50 μl of 0.1M formic acid, 20 μl each cell lysate was mixed with 80 μl (1 mg) RNA Binding YSi-SPA beads (GE Healthcare, Chalfont St. Giles, UK) on PICO plates (PerkinElmer) and counted on a TopCount (Packard).
Each curve is representative of at least three or more independent experiments.

human 5-HT2A receptors [3] = target: T4, human 5-HT2A receptors; assay: R-SAT functional assay at 5-HT2A; type: cell-based; parameters: expressed in transfected cells; host or cells: NIH-3T3
human 5-HT6 receptor = human 5-HT6 receptor (Homo sapiens, UniProt P50406); assay: R-SAT assay 5-HT6; type: cell-based
human 5-HT6 receptor, sequence (P50406 whole entry): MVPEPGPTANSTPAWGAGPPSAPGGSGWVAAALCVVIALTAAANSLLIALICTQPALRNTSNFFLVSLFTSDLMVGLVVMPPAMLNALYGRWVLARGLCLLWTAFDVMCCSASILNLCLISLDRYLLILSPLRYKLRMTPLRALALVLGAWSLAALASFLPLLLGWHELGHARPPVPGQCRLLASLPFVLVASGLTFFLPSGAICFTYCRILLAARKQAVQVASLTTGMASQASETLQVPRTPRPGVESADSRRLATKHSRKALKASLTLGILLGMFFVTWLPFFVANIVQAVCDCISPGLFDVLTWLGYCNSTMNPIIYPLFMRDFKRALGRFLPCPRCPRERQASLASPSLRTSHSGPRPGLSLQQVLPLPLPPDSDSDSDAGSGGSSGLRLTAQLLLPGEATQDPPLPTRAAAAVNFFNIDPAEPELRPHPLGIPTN

human 5-HT1B receptor = human 5-HT1B receptor (Homo sapiens, UniProt P28222); assay: R-SAT assay 5-HT1B; type: cell-based
human 5-HT1B receptor, sequence (P28222 whole entry): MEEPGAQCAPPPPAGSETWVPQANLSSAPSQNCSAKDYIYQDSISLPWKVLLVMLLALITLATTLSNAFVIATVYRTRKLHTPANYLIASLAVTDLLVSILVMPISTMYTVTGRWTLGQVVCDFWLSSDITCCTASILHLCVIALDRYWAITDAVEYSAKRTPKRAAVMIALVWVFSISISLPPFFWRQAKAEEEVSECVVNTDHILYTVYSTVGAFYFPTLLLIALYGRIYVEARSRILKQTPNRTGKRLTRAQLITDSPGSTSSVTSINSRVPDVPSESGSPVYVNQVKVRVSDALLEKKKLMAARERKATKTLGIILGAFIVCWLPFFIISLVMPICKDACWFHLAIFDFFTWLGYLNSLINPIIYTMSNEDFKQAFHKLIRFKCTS

human 5-HT2A receptors [4] = target: T4, human 5-HT2A receptors; assay: BRET2 beta-arrestin-2 recruitment assay at 5-HT2A; type: cell-based; parameters: expressed in transfected cells; host or cells: HEK-293T; conditions: mean ± SEM
Method: (§1) BRET-2 signals were measured using the multiplate reader Mithras 940LB (Berthold Technologies, Bad Wildbad, Germany) and were calculated as the ratio between the Renilla luciferase emission and the GFP2 emission corrected by the background emissions of non-transfected cells.

human D1 receptor = target: T5, human D1 receptor (Homo sapiens, UniProt P21728); assay: R-SAT assay D1; type: cell-based; conditions: Table 3, D1; percent response of reference SKF 38393
T5 construct: expressed in transfected cells; host or cells: NIH-3T3 (inferred: R-SAT host; D1 is in neither method list of b200)
T5 sequence (P21728 whole entry): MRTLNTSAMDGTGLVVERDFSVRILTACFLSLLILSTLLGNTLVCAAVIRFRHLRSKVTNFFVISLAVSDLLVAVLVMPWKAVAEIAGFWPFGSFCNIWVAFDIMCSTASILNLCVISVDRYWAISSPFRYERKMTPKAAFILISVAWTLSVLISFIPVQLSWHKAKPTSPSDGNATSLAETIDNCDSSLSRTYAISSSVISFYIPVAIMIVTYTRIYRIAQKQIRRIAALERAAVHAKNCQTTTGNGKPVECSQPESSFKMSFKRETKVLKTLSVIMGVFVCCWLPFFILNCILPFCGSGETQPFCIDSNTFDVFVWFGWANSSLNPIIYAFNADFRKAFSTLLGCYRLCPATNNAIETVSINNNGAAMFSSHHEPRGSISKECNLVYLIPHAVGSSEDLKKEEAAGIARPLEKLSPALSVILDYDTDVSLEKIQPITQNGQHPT

human M4 receptor = target: T6, human M4 receptor (Homo sapiens, UniProt P08173); assay: R-SAT assay M4; type: cell-based; conditions: Table 3, M4; percent response of reference Carbachol
T6 construct: expressed in transfected cells; host or cells: NIH/3T3
T6 sequence (P08173 1-479): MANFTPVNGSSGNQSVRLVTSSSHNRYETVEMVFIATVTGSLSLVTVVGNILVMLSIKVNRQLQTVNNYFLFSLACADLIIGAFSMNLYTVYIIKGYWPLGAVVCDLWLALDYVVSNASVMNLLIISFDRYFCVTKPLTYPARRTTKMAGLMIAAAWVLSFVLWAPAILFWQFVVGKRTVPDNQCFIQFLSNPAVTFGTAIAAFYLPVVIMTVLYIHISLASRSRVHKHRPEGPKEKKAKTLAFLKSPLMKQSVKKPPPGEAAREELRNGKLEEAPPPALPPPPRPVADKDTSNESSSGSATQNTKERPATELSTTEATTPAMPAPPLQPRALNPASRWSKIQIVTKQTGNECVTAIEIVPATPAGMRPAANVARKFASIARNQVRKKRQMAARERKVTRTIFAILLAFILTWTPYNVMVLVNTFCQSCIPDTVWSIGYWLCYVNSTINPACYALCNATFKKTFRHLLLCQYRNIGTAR

human M5 receptor = target: T7, human M5 receptor (Homo sapiens, UniProt P08912); assay: R-SAT assay M5; type: cell-based; conditions: Table 3, M5; percent response of reference Carbachol
T7 construct: expressed in transfected cells; host or cells: NIH/3T3 cells, transient transfection, pSI vector
T7 sequence (P08912 whole entry): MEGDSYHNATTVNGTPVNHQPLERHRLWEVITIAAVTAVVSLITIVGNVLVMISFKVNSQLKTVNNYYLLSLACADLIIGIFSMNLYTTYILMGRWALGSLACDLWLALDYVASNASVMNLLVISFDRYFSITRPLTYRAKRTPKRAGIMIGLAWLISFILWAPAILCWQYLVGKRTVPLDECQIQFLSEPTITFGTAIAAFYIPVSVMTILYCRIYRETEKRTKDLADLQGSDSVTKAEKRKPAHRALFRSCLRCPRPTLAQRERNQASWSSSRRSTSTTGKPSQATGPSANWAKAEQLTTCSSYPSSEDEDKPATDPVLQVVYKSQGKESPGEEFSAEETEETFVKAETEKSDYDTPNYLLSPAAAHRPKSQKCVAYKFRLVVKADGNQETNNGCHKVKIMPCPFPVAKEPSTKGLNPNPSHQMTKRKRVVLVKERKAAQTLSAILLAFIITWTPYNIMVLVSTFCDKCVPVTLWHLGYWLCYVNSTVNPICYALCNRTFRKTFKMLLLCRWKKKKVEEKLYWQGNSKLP

human M2 receptor = target: T8, human M2 receptor (Homo sapiens, UniProt P08172); assay: R-SAT assay M2; type: cell-based; conditions: Table 3, M2; percent response of reference Carbachol
T8 construct: expressed in transfected cells; host or cells: NIH/3T3
T8 sequence (P08172 1-466): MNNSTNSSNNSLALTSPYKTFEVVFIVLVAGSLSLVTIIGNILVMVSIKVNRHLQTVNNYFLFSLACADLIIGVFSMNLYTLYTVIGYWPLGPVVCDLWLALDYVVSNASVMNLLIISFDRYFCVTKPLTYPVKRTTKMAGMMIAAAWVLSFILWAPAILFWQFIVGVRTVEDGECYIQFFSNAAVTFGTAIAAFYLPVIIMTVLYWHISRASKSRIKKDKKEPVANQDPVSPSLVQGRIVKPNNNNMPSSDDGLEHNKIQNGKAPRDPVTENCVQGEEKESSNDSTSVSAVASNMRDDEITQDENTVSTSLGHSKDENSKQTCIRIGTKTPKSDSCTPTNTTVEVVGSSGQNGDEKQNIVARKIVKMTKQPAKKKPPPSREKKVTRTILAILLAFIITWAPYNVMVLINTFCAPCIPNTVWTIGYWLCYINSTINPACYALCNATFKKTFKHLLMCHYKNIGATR

[5] = target: human D4 (variant 4.2) receptor (Homo sapiens, UniProt P21917, DEL265-296); type: cell-based
human D4 (variant 4.2) receptor, sequence (P21917 with tags, fused parts or gaps DEL265-296): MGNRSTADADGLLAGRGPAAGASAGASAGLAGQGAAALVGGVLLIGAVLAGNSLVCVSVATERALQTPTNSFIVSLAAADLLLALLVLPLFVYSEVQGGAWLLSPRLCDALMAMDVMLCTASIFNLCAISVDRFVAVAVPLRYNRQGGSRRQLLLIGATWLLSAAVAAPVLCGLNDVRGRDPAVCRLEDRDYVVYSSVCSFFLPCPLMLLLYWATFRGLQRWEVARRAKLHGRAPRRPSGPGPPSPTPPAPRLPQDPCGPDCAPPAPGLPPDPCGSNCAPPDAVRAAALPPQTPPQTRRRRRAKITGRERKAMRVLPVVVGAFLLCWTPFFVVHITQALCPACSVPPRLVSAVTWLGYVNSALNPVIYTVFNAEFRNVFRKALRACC

human D3 receptor = target: T9, human D3 receptor (Homo sapiens, UniProt P35462); assay: R-SAT assay D3; type: cell-based; conditions: Table 3, D3; percent response of reference Pergolide
T9 construct: expressed in transfected cells
T9 sequence (P35462 whole entry): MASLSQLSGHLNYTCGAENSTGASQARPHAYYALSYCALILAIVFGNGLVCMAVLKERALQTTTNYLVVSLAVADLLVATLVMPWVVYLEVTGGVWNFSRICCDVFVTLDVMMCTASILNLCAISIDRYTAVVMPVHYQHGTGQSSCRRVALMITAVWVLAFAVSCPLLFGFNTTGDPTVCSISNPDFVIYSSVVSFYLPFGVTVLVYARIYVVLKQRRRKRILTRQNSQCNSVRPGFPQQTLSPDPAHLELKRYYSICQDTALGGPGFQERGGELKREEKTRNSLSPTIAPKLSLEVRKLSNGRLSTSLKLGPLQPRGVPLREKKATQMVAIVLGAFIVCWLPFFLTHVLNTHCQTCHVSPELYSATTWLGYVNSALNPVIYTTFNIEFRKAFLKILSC

D2 receptors [6] = target: T10, D2 receptors (Homo sapiens, UniProt P14416); assay: GTPγS binding assay at D2; type: biochemical; parameters: expressed in transfected cells; conditions: percent response of reference ligand dopamine; mean ± SEM
T10 sequence (P14416 1-414 isoform P14416-2): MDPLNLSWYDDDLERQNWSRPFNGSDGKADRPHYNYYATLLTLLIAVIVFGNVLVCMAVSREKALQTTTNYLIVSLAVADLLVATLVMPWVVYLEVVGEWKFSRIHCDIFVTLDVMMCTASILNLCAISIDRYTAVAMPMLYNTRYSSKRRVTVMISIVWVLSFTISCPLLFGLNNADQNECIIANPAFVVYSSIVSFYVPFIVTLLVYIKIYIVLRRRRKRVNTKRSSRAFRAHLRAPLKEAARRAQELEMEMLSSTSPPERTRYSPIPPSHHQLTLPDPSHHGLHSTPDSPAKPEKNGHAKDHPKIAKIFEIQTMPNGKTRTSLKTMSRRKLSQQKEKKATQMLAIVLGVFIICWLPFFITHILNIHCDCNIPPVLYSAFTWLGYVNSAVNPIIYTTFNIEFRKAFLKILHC

D2 receptors [7] = target: T10, D2 receptors; assay: R-SAT functional assay at D2; type: cell-based; parameters: expressed in transfected cells; host or cells: NIH-3T3
D2 receptors [8] = target: T10, D2 receptors; assay: BRET2 beta-arrestin-2 recruitment assay at D2; type: cell-based; parameters: expressed in transfected cells; host or cells: HEK-293T
Method: as §1
Each curve is representative of two to three independent experiments.

human alpha1A receptor = target: T11, human alpha1A receptor (Homo sapiens, UniProt P35348); assay: R-SAT assay α1A; type: cell-based; conditions: Table 3, α1A; percent response of reference Phenylephrine
T11 construct: expressed in transfected cells; host or cells: NIH/3T3 cells, transient transfection, pSI vector
T11 sequence (P35348 1-466): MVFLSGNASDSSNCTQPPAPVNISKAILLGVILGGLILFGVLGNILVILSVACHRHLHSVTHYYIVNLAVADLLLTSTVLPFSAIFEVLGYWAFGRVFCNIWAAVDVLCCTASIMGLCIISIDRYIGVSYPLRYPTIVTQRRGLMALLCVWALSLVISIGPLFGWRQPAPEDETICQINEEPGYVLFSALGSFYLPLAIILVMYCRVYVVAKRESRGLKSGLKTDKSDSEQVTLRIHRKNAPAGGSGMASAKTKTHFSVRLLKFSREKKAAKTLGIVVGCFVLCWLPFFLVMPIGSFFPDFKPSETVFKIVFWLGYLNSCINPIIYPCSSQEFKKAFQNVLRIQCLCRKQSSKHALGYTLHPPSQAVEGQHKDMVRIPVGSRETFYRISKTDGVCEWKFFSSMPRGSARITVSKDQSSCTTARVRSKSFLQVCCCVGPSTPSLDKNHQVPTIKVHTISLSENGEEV

human alpha1B receptor = target: T12, human alpha1B receptor (Homo sapiens, UniProt P35368); assay: R-SAT assay α1B; type: cell-based; conditions: Table 3, α1B; percent response of reference Phenylephrine
T12 construct: expressed in transfected cells; host or cells: NIH/3T3 cells, transient transfection, pSI vector
T12 sequence (P35368 1-520): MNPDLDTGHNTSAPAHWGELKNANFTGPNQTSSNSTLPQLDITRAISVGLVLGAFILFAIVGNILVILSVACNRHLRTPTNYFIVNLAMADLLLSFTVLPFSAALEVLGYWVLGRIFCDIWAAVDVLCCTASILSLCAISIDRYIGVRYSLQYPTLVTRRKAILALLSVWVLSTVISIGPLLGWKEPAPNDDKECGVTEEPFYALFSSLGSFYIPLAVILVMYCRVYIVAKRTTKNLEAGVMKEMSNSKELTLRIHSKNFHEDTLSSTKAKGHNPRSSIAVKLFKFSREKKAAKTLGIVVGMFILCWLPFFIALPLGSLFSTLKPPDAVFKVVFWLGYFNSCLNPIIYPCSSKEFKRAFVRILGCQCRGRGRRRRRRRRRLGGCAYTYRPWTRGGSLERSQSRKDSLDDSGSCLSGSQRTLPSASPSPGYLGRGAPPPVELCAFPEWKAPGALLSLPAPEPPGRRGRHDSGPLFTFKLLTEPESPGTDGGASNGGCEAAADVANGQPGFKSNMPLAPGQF

human alpha2C receptor = target: T13, human alpha2C receptor (Homo sapiens, UniProt P18825); assay: R-SAT assay α2C; type: cell-based; conditions: Table 3, α2C; percent response of reference UK 14,306
T13 construct: expressed in transfected cells; host or cells: NIH/3T3 cells, transient transfection, pSI vector
T13 sequence (P18825 1-462): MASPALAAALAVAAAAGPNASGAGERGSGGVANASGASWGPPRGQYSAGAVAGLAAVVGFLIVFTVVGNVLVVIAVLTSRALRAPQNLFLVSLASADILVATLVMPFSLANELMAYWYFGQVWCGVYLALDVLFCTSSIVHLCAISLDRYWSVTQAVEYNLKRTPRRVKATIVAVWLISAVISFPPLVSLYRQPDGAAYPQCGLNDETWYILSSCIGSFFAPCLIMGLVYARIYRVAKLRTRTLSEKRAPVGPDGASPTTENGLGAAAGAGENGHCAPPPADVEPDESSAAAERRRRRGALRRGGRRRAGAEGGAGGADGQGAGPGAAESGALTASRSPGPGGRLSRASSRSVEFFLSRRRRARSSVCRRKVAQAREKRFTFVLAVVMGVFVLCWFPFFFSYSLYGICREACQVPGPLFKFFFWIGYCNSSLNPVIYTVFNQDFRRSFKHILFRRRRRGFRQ

[9] = percent response of reference ligand 5-HT

T1 sequence (P34969 whole entry): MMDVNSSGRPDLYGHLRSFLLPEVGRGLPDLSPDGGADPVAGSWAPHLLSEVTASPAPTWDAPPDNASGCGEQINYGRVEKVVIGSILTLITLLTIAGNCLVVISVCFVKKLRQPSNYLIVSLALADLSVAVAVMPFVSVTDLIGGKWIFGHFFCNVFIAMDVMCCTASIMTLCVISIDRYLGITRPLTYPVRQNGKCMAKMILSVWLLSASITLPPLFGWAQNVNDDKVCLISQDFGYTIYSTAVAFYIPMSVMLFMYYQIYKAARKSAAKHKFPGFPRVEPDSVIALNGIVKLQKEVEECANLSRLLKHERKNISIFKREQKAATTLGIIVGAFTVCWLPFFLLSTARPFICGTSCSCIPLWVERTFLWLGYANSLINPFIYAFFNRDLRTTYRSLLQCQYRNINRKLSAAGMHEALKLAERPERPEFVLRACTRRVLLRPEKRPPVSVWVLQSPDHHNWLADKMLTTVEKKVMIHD

NCCc1c[nH]c2ccc(C(N)=O)cc12 [5-CT, 5-carboxamidotryptamine, reference compound]
Eff (%) (human 5-HT7 receptor): 100%
Eff (%) [1]: 100%
Eff (%) (human 5-HT1D receptor): 100%
EC50 (5-HT2B receptors): 50.1 nM
Eff (%) (5-HT2B receptors; Table 3, 5-HT2B, percent response of reference 5-CT): 100%
EC50 (human 5-HT2A receptors [2]; negative logarithm of EC50 in molar (M), HEK 293T cells, read-out: PI Hydrolysis pEC50 (converted)): 2.51e-07 M
PI Hydrolysis Eff (%) (human 5-HT2A receptors [2]; [9]): 92 ± 4%
EC50 (human 5-HT2A receptors [3]; Table 1, negative logarithm of EC50 in molar (M), NIH3T3 cells, mean ± SEM, read-out: R-SAT pEC50 (converted)): 6.31e-08 M
R-SAT Eff(%) (human 5-HT2A receptors [3]; Table 1, percent response of reference ligand 5-CT, mean ± SEM): 100 ± 0%
EC50 (human 5-HT2A receptors [3]; Table 3, 5-HT2A, negative logarithm of EC50 in molar, read-out: pEC50 (converted)): 7.94e-08 M
Eff (%) (human 5-HT2A receptors [3]; Table 3, 5-HT2A, percent response of reference 5-CT): 100%
EC50 (human 5-HT6 receptor): 251 nM
Eff (%) (human 5-HT6 receptor; Table 3, 5-HT6, percent response of reference 5-CT): 100%
EC50 (human 5-HT1B receptor): 6.31 nM
Eff (%) (human 5-HT1B receptor; Table 3, 5-HT1B, percent response of reference 5-CT): 100%
EC50 (human 5-HT2A receptors [4]; negative logarithm of EC50 in molar (M), HEK 293T cells, read-out: BRET2 pEC50 (converted)): 2e-07 M
BRET2 Eff % (human 5-HT2A receptors [4]; [9]): 98 ± 3%

Oc1cc2c(cc1O)C(c1ccccc1)CNCC2 (stereo not shown) [SKF 38393, reference compound]
Eff (%) (human D1 receptor): 100%

C[N+](C)(C)CCOC(N)=O [Carbachol, reference compound]
Eff (%) (human M4 receptor): 100%
Eff (%) (human M5 receptor): 100%
Eff (%) (human M2 receptor): 100%

CCCN1C[C@H](CSC)C[C@@H]2c3cccc4[nH]cc(c34)C[C@H]21 [Pergolide]
Eff (%) [5]: 100%
Eff (%) (human D3 receptor): 100%
GTPγS Eff % (D2 receptors [6]): 94 ± 7%
R-SAT Eff(%) (D2 receptors [7]; Table 2, percent response of reference ligand pergolide, mean ± SEM): 100 ± 0%
Eff (%) (D2 receptors [7]; Table 3, D2, percent response of reference Pergolide): 100%
agonist profile in BRET2 assays at D2 receptors (D2 receptors [8]): partial agonists
BRET2 Eff % (D2 receptors [8]; percent response of reference ligand dopamine, mean ± SEM): 64 ± 3%

CNC[C@H](O)c1cccc(O)c1 [Phenylephrine, reference compound]
Eff (%) (human alpha1A receptor): 100%
Eff (%) (human alpha1B receptor): 100%

Brc1c(NC2=NCCN2)ccc2nccnc12 [UK 14,306, reference compound]
Eff (%) (human alpha2C receptor): 100%
